Reference: US7365088B2, “Indazole-derivatives as factor Xa inhibitors” (Sanofi-Aventis Deutschland GmbH, priority 2003, dated 2008)

biological target: human factor Xa (Homo sapiens, UniProt P00742); assay: Factor Xa assay (chromogenic, substrate S-2765)
Sequence (P00742 235-488 limits assumed): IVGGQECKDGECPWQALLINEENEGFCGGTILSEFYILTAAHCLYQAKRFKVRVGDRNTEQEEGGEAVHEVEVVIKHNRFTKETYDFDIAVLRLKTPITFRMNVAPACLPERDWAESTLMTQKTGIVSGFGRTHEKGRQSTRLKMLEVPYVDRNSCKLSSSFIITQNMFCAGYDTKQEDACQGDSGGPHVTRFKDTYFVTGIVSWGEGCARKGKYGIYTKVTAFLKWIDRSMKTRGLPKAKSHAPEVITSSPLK
Sequence (P00742 41-179 partner limits assumed): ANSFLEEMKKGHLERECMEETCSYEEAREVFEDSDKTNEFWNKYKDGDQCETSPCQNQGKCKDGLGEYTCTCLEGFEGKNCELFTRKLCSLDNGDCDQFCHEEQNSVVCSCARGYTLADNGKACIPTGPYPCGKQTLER

| Compound | Ki |
| --- | --- |
| CC(C)N1CCC(NC(=O)c2nn(Cc3cc(-c4ccc(Cl)s4)on3)c3ccc(C(=O)NCC(F)(F)F)cc23)CC1 [Example 27, 1-[5-(5-Chloro-thiophen-2-yl)-isoxazol-3-ylmethyl]-1H-indazole-3,5-dicarboxylic acid 3-[(1-isopropyl-piperidin-4-yl)-amide]5-[(2,2,2-trifluoro-ethyl)-amide]] | 39 nM |
| CC(C)N1CCC(NC(=O)c2nn(Cc3cc(-c4ccc(Cl)s4)on3)c3ccc(C(=O)N(C)CC(=O)O)cc23)CC1 [Example 28, {[1-[5-(5-Chloro-thiophen-2-yl)-isoxazol-3-ylmethyl]-3-(1-isopropyl-piperidin-4-ylcarbamoyl)-1H-indazole-5-carbonyl]-methyl-amino}-acetic acid] | 15 nM |
| CC(C)N1CCC(NC(=O)c2nn(CC(=O)Nc3ccc(Cl)cn3)c3ccccc23)CC1 [Example 7] | 86 nM |
| CCOC(=O)CNC(=O)c1ccc2c(c1)c(C(=O)NC1CCN(C(C)C)CC1)nn2Cc1cc(-c2ccc(Cl)s2)on1 [Example 19, {[1-[5-(5-Chloro-thiophen-2-yl)-isoxazol-3-ylmethyl]-3-(1-isopropyl-piperidin-4-ylcarbamoyl)-1H-indazole-5-carbonyl]-amino}-acetic acid ethyl ester] | 26 nM |
| CC(C)N1CCC(NC(=O)c2nn(Cc3cc(-c4ccc(Cl)s4)on3)c3ccc(C(=O)N(CCO)CCO)cc23)CC1 [Example 17, 1-[5-(5-Chloro-thiophen-2-yl)-isoxazol-3-ylmethyl]-1H-indazole-3,5-dicarboxylic acid 5-[bis-(2-hydroxy-ethyl)-amide]3-[(1-isopropyl-piperidin-4-yl)-amide]] | 30 nM |
| CC(C)N1CCC(NC(=O)c2nn(Cc3cc(-c4ccc(Cl)s4)on3)c3ccc(C(=O)O)cc23)CC1 [Example 4, 1-[5-(5-Chloro-thiophen-2-yl)-isoxazol-3-ylmethyl]-3-(1-isopropyl-piperidin-4-ylcarbamoyl)-1H-indazole-5-carboxylic acid] | 18 nM |
| CC(C)N1CCC(NC(=O)c2nn(Cc3cc(-c4ccc(Cl)s4)on3)c3ccc(C(=O)NC[Si](C)(C)C)cc23)CC1 [Example 16, 1-[5-(5-Chloro-thiophen-2-yl)-isoxazol-3-ylmethyl]-1H-indazole-3,5-dicarboxylic acid 3-[(1-isopropyl-piperidin-4-yl)-amide]5-trimethylsilanylmethyl-amide] | 54 nM |

Results, then the compound that gave them:

| Ki | Compound |
| --- | --- |
| 52 nM | O=C(Nc1ccc(-n2ccc(=O)cc2)cc1)c1nn(Cc2cc(-c3ccc(Cl)s3)on2)c2ccccc12 [Example 54, 1-[5-(5-Chloro-thiophen-2-yl)-isoxazol-3-ylmethyl]-1H-indazole-3-carboxylic acid [4-(4-oxo-4H-pyridin-1-yl)-phenyl]-amide] |
| 10 nM | CC(C)N1CCC(NC(=O)c2nn(Cc3cc(-c4ccc(Cl)s4)on3)c3ccc(C(=O)N4CC(C(=O)O)C4)cc23)CC1 [Example 52, 1-[1-[5-(5-Chloro-thiophen-2-yl)-isoxazol-3-ylmethyl]-3-(1-isopropyl-piperidin-4-ylcarbamoyl)-1H-indazole-5-carbonyl]-azetidine-3-carboxylic acid] |
| 19 nM | O=C(Nc1ccc(N2CCCC2=O)cc1)c1nn(Cc2cc(-c3ccc(Cl)s3)on2)c2ccccc12 [Example 39, 1-[5-(5-Chloro-thiophen-2-yl)-isoxazol-3-ylmethyl]-1H-indazole-3-carboxylic acid [4-(2-oxo-pyrrolidin-1-yl)-phenyl]-amide] |
| 120 nM | O=C(Nc1ccc(C(=O)N2CCCC2)cc1)c1nn(Cc2cc(-c3ccc(Cl)s3)on2)c2ccccc12 [Example 34, 1-[5-(5-Chloro-thiophen-2-yl)-isoxazol-3-ylmethyl]-1H-indazole-3-carboxylic acid [4-(pyrrolidine-1-carbonyl)-phenyl]-amide] |
| 12 nM | CC(C)N1CCC(NC(=O)c2nn(Cc3cc(-c4ccc(Cl)s4)on3)c3ccc(C(=O)N4CCCOCC4)cc23)CC1 [Example 30, 1-[5-(5-Chloro-thiophen-2-yl)-isoxazol-3-ylmethyl]-5-([1,4]oxazepane-4-carbonyl)-1H-indazole-3-carboxylic acid (1-isopropyl-piperidin-4-yl)-amide] |
